Laboratory results published in patent publication US11129801B2 (SigmaThera SAS, priority 2016, dated 2021).
Values joined by “and” are separate entries in the source; they are usually repeats but may differ in a detail not shown here. Equal values may be shown once.

Assays:
GFAP = test: ELISA of cortical GFAP, Aβ25-35 mouse model; assay type: in vivo; conditions: Experiment 2, post-treatment, 1 mg/kg
Experimental: (§1) In Experiment 2, twelve mice per experimental group were administered Sc.Aβ or Aβ25-35-amyloid peptide on day 0 by i.c.v. injection. […] Animals were tested at day 7 and later.
(§2) For each of Experiments 1-4, on day 7, all animals were tested for the spontaneous alternation performance in the Y-maze test, an index of spatial working memory. On day 8 and 9, the contextual long-term memory of the animals was assessed using the step-through type passive avoidance procedure. On day 9, immediately after the retention session, animals were sacrificed by decapitation and the hippocampus and cortex dissected out. Lipid peroxidation was analyzed in the hippocampus, whereas neuroinflammation, apoptosis, amyloid burden and hyperphosphorylation of tau protein were analyzed in cortex.
(§3) Enzyme-linked immunosorbant assay (ELISA) assays: Contents in GFAP, Caspase 12, Amyloid-beta 1-40, Amyloid-beta 1-42, Total Tau, and pTau on Ser199 were analyzed by using commercial ELISA assay kit. • GFAP: Supplier: USCNK #Ref: SEA068Mu • Total Tau: Supplier: Novex #Ref: KMB7011 • pTau (S199): Supplier: Novex #Ref: KMB7041 • Amyloid beta 1-40: Supplier: Novex #Ref: KMB3481 • Amyloid beta 1-42: Supplier: Novex #Ref: KMB3441 • Caspase-12: Supplier: LSBio #Ref: LS-F11023 • BAX: Supplier: Euromedex#Ref: SEB343Mu • BCL2: Supplier: Euromedex #Ref: SEA778Mu […]

[1] = system: Tau protein phosphorylated on Serine 199 (pTauS199); test: ELISA of cortical pTauS199, Aβ25-35 mouse model; assay type: in vivo; conditions: Experiment 2, post-treatment
Experimental: as §1, §2, §3

[2] = system: gerbil model of global cerebral ischemia; conditions: cited from earlier work
[3] = system: hippocampal lipid peroxidation; test: Hippocampal lipid peroxidation (LPO) measurement, Aβ25-35 mouse model; assay type: in vivo; conditions: for hippocampal LPO levels: 1 mg/kg
Experimental: as §2
Sacrifice: At the end of the passive avoidance retention session, on day 9, the animals were sacrificed by decapitation. The hippocampi and frontal cortex were dissected out and kept at −80° C. until the measurement of lipid peroxidation and other markers.
Lipid peroxidation measurement: At day 24, 6 hippocampi from each group were used. After thawing, homogenates were homogenized in cold methanol ( 1/10 w/v), centrifuged at 1,000 g during 5 min and the supernatant placed in Eppendorf tube. The reaction volume of each homogenate was added to FeSO4 1 mM, H2SO4 0.25 M, xylenol orange 1 mM and incubated for 30 min at room temperature. After reading the absorbance at 580 nm (A5801), 10 μl of cumene hydroperoxyde (CHP) 1 mM was added to the sample and incubated for 30 min at room temperature, to determine the maximal oxidation level. The absorbance was measured at 580 nm (A5802). The level of lipid peroxidation was determined as CHP equivalents according to: CHPE=A5801/A5802×[CHP (nmol)] and expressed as CHP equivalents per wet weight of tissue and as percentage of control group data (Veh-treated Sc.Aβ-administered mice).

Aβ1-42 = test: ELISA of cortical Aβ1-42, Aβ25-35 mouse model; assay type: in vivo; conditions: Experiment 2, post-treatment
Experimental: as §1, §2, §3

[4] = system: Aβ25-35 mouse model of Alzheimer's disease; test: Step-through passive avoidance test, Aβ25-35 mouse model; assay type: in vivo
Experimental: The compound efficacy was evaluated 7 days after the peptide administration on the attenuation of the Aβ25-35-induced learning deficits (spatial working memory using the spontaneous alternation in the Y-maze test, and contextual long-term memory using the passive avoidance test).
The mice were tested 7 days post injection or at the indicated time points.
as §1
Each of these doses was, by itself, unable to produce any protective effect. The synergy/additivity/antagonism was evaluated by calculating the combination index. […] Animals were then tested at day 7 and later.
as §2
The homogeneous oligomeric preparation of Aβ25-35 peptide was performed according to the AMYLGEN's own procedure. Each mouse was anesthetized with isoflurane 2.5% and injected i.c.v. with Aβ25-35 peptide (9 nmol/mouse) or Sc.Aβ peptide (9 nmol/mouse), in a final volume of 3 μl/mouse, according to the previously described method (Maurice T, et al. (1996). Brain Res. 706(2): 181-193, Maurice T, et al. (1998) Neuroscience 83(2): 413-428, Meunier J, et al. (2006) British J. Pharmacol. 149(8): 998-1012, Villard V, et al. (2009) Neuropsychopharmacology 34(6): 1552-1566, Villard V, et al. (2011) J. Pharmacol. Sci. 115(3): 279-292).
Animals: Male Swiss mice, 6 weeks old and weighing 30-35 g, from JANVIER (Saint Berthevin, France), were kept for housing and experiments took place within the animal facility building of the University of Montpellier 2 (CECEMA, Office of Veterinary Services agreement #B-34-172-23). Animals were housed in groups with access to food and water ad libitum, except during behavioral experiments. They were kept in a temperature and humidity controlled animal facility on a 12 h/12 h light/dark cycle (lights off at 07:00 pm). […]
Passive avoidance test: The passive avoidance task was used to evaluate learning and memory in mice treated with igmesine. […] The step-through latency, that is, the latency spent to enter the dark compartment, and the number of vocalizations was recorded. […]

caspase 12 = test: ELISA of cortical caspase 12, Aβ25-35 mouse model; assay type: in vivo; conditions: Experiment 2, post-treatment, 1 mg/kg
Experimental: as §1, §2, §3

[5] = Experiment 1, pre-treatment, 0.1, 0.3, 1 mg/kg i.p.
[6] = Experiment 2, post-treatment day 1 to day 6

Compound: CCC(C/C=C/c1ccccc1)(c1ccccc1)N(C)CC1CC1 (single isomer, unassigned; (+)) [igmesine, (+)-(E)-N-(cyclopropylmethyl)-N-methyl-3,6-diphenylhex-5-en-3-amine]
- cortical GFAP elevation (GFAP): fully normalized
- elevation of cortical pTauS199 [1]: fully normalized
- effective doses, neuroprotective effects [2]: 50 mg/kg and 75 mg/kg and 100 mg/kg
- hippocampal LPO levels ([3]; Experiment 1, pre-treatment): fully normalized
- hippocampal LPO levels ([3]; Experiment 2, post-treatment): fully normalized
- synergy on hippocampal LPO with donepezil ([3]; Experiment 3, igmesine 0.1 mg/kg + donepezil […]): did synergize
- synergy on hippocampal LPO with memantine ([3]; Experiment 3, igmesine 0.1 mg/kg + memantine): synergy was not present
- cortical Aβ1-42 elevation (Aβ1-42): fully normalized
- prevention of passive avoidance deficits, escape latency [4, 5]: at the highest dose
- prevention of passive avoidance deficits, step-through latency [4, 5]: significant prevention at the two highest dose tested
- prevention of passive avoidance deficits, escape latency [4, 6]: significant prevention at the highest dose tested
- prevention of passive avoidance deficits, step-through latency [4, 6]: significant prevention at the highest dose tested
- cortical caspase 12 elevation (caspase 12): fully normalized
